Measurements as given in ChEMBL document CHEMBL5375995, “Discovery and Mechanistic Study of Novel Mycobacterium tuberculosis ClpP1P2 Inhibitors” (J Med Chem, 2023).
≈ marks a conversion by molar mass, not a printed value. Calls of active or inactive are those of the source. The rule behind the calls is not given here.

Key:
ClpP1P2 [1] = target: T1, ClpP1P2 (Mycobacterium tuberculosis (strain ATCC 25618 / H37Rv), UniProt P9WPC3+P9WPC5); assay: Inhibition of N-terminal His6-SUMO-tagged Mtb ClpP1 (7 to 200 residues)/ClpP2 (13 to 214 residues) complex expressed in Escherichia coli BL21(DE3) using Z-Gly-Gly-Leu-AMC as substrate measured for 60 mins in presence of Bz-LL by fluorescence based assay
T1 sequence (P9WPC5 whole entry, the tested form may be a part): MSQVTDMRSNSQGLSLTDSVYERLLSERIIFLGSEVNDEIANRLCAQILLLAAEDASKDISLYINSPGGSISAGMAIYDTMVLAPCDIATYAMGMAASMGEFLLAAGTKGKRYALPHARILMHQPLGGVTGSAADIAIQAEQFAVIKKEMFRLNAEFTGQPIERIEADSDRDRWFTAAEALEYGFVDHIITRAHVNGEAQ
T1 sequence (P9WPC3 whole entry, the tested form may be a part): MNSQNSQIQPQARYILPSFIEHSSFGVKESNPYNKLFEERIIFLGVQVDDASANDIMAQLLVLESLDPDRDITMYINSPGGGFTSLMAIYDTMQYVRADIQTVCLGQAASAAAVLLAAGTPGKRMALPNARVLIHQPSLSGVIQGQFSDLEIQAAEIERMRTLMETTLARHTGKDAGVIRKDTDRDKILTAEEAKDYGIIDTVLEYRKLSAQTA

ClpP1P2 [2] = target: T1, ClpP1P2; assay: Inhibition of N-terminal His6-SUMO-tagged Mtb ClpP1 (7 to 200 residues)/ClpP2 (13 to 214 residues) complex expressed in Escherichia coli BL21(DE3) using FITC-casein as substrate measured for 1 hr in presence of Bz-LL/ATP by fluorescence based assay
[3] = target: ATP-dependent Clp protease ATP-binding subunit ClpC1 (Mycobacterium tuberculosis) (UniProt P9WPC9); assay: Inhibition of N-terminal His6-tagged full-length Mtb ClpC1 ATPase activity expressed in Escherichia coli BL21(DE3) at 100 uM in presence of PK/LDH/ATP/NADH by spectrophotometry
Sequence of ATP-dependent Clp protease ATP-binding subunit ClpC1 (Mycobacterium tuberculosis) (P9WPC9 whole entry): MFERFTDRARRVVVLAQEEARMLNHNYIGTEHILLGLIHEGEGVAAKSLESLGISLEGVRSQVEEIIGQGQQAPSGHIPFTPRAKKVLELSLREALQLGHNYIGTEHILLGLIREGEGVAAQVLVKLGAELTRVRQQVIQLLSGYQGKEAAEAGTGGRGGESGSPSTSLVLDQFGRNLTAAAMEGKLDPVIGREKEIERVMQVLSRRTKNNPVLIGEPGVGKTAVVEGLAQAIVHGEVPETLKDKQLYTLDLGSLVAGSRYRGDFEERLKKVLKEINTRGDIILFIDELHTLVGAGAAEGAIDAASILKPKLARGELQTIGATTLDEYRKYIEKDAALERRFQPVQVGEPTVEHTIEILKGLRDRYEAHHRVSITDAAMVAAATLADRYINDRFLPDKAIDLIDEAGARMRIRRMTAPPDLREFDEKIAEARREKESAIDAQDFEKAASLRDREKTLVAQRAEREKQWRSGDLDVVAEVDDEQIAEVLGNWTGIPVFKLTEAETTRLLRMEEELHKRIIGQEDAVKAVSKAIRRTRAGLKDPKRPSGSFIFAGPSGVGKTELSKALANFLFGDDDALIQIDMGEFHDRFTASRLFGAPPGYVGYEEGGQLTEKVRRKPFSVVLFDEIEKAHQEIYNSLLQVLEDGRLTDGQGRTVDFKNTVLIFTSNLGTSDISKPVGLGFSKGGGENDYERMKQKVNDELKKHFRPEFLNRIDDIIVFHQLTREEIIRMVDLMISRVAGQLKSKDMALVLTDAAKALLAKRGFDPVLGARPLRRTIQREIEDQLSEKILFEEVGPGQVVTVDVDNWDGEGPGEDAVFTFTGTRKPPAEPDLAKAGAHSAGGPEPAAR

[4] = target: ATP-dependent Clp protease ATP-binding subunit ClpC1 (Mycobacterium tuberculosis) (UniProt P9WPC9); assay: Inhibition of N-terminal His6-tagged full-length Mtb ClpC1 creatine kinase activity expressed in Escherichia coli BL21(DE3) using creatine phosphate as substrate at 100 uM preincubated for 10 mins followed by substrate addition measured after 10 mins in presence of ADP by Kinase-Glo assay; details: time 20.0 min
[5] = Inhibition of full-length Escherichia coli ClpP complex expressed in Escherichia coli BL21(DE3) using Suc-LY-AMC as substrate incubated for 60 mins in presence of Bz-LL by fluorescence based assay
[6] = Inhibition of full-length Staphylococcus aureus ClpP complex expressed in Escherichia coli BL21(DE3) using Suc-LY-AMC as substrate measured for 60 mins in presence of Bz-LL by fluorescence based assay
[7] = Inhibition of full-length Pseudomonas aeruginosa ClpP1 expressed in Escherichia coli BL21(DE3) using Suc-LY-AMC as substrate measured for 60 mins in presence of Bz-LL by fluorescence based assay
[8] = Inhibition of full-length Mtb H37Rv ClpP complex expressed in Escherichia coli BL21(DE3) using FITC-casein as substrate measured for 1 hr in presence of Bz-LL/ATP by fluorescence based assay; design: species or system Mycobacterium tuberculosis
[9] = Inhibition of full-length human ClpP complex ([…]) expressed in Escherichia coli BL21(DE3) using FITC-casein as substrate measured for 1 hr in presence of Bz-LL/ONC212/ATP by fluorescence based assay
[10] = Selectivity index, ratio of IC50 for Mtb H37Rv ClpP complex using Z-Gly-Gly-Leu-AMC as substrate to IC50 for N-terminal His6-SUMO-tagged Mtb ClpP1 (7 to 200 residues)/ClpP2 (13 to 214 residues) complex expressed in Escherichia coli BL21(DE3)
[11] = Selectivity index, ratio of IC50 for full-length Staphylococcus aureus ClpP complex expressed in Escherichia coli BL21(DE3) using Suc-LY-AMC as substrate to IC50 for N-terminal His6-SUMO-tagged Mtb ClpP1 (7 to 200 residues)/ClpP2 (13 to 214 residues) complex expressed in Escherichia coli BL21(DE3)
[12] = Selectivity index, ratio of IC50 for full-length Pseudomonas aeruginosa ClpP1 expressed in Escherichia coli BL21(DE3) using Suc-LY-AMC as substrate to IC50 for N-terminal His6-SUMO-tagged Mtb ClpP1 (7 to 200 residues)/ClpP2 (13 to 214 residues) complex expressed in Escherichia coli BL21(DE3)
[13] = Selectivity index, ratio of IC50 for full-length human ClpP complex ([…]) expressed in Escherichia coli BL21(DE3) using Ac-WLA-AMC as substrate to IC50 for N-terminal His6-SUMO-tagged Mtb ClpP1 (7 to 200 residues)/ClpP2 (13 to 214 residues) complex expressed in Escherichia coli BL21(DE3)
[14] = Selectivity index, ratio of IC50 for full-length Mtb H37Rv ClpP complex expressed in Escherichia coli BL21(DE3) using FITC-casein as substrate to IC50 for N-terminal His6-SUMO-tagged Mtb ClpP1 (7 to 200 residues)/ClpP2 (13 to 214 residues) complex expressed in Escherichia coli BL21(DE3)
[15] = Selectivity index, ratio of IC50 for full-length human ClpP complex ([…]) expressed in Escherichia coli BL21(DE3) using FITC-casein as substrate to IC50 for N-terminal His6-SUMO-tagged Mtb ClpP1 (7 to 200 residues)/ClpP2 (13 to 214 residues) complex expressed in Escherichia coli BL21(DE3)
[16] = system: Mycobacterium tuberculosis; assay: Antibacterial activity against Mycobacterium tuberculosis H37Rv assessed as bacterial growth inhibition incubated for 24 hrs by broth microdilution method; type: functional
[17] = system: Mycobacterium tuberculosis; assay: Antibacterial activity against Mycobacterium tuberculosis H37Ra assessed as bacterial growth inhibition incubated for 24 hrs by broth microdilution method; type: functional
[18] = system: Mycolicibacterium smegmatis; assay: Antibacterial activity against wild-type Mycobacterium smegmatis mc2 155 assessed as bacterial growth inhibition incubated for 2 days by Alamar blue staining based assay; type: functional; details: mc2 155, 48 h, time 2 day
Escherichia coli = assay: Antibacterial activity against Escherichia coli assessed as bacterial growth inhibition incubated for 24 hrs by broth microdilution method; type: functional
Staphylococcus aureus = assay: Antibacterial activity against Staphylococcus aureus assessed as bacterial growth inhibition incubated for 24 hrs by broth microdilution method; type: functional
Pseudomonas aeruginosa = assay: Antibacterial activity against Pseudomonas aeruginosa assessed as bacterial growth inhibition incubated for 24 hrs by broth microdilution method; type: functional
[19] = Inhibition of N-terminal His6-SUMO-tagged Mycobacterium smegmatis ClpP1 (3 to 200 residues)/P2 (17 to 218 residues) expressed in Escherichia coli BL21(DE3) using Z-Gly-Gly-Leu-AM as substrate measured for 60 mins in presence of Bz-LL by fluorescence based assay; design: species or system Mycolicibacterium smegmatis
[20] = Inhibition of N-terminal His6-SUMO-tagged Mycobacterium smegmatis ClpP1 (3 to 200 residues)/P2 (17 to 218 residues) expressed in Escherichia coli BL21(DE3)/C1 using Z-Gly-Gly-Leu-AM as substrate measured for 60 mins in presence of Bz-LL by fluorescence based assay; design: species or system Mycolicibacterium smegmatis
[21] = system: Mycolicibacterium smegmatis; assay: Antibacterial activity against Mycobacterium smegmatis mc2 155 harboring ClpX knockout assessed as bacterial growth inhibition incubated for 2 days by Alamar blue staining based assay; type: functional; details: mc2 155, 48 h, time 2 day
[22] = system: Mycolicibacterium smegmatis; assay: Antibacterial activity against Mycobacterium smegmatis mc2 155 harboring ClpC1 knockout assessed as bacterial growth inhibition incubated for 2 days by Alamar blue staining based assay; type: functional; details: mc2 155, 48 h, time 2 day
[23] = target: ClpP1P2 (Mycobacterium tuberculosis (strain ATCC 25618 / H37Rv)) (UniProt P9WPC5+P9WPC3); assay: Inhibition of wild-type Mtb ClpP1 expressed in Escherichia coli BL21(DE3)

COc1cc2c(Oc3ccc4[nH]c(C)cc4c3F)ncnc2cc1OCCCN1CCCC1 [CEDIRANIB]
IC50 (ClpP1P2 [1]): 2.8 µM | IC50 (ClpP1P2 [2]): 45.1 µM | inhibition [3]: inactive | inhibition [4]: inactive | IC50 [5]: > 500 µM | IC50 [6]: > 500 µM | IC50 [7]: > 500 µM | IC50 [8]: 24.2 µM | IC50 [9]: 273 µM | Ratio IC50 [10]: 1 | Ratio IC50 [11]: > 170 | Ratio IC50 [12]: > 170 | Ratio IC50 [13]: 13.3 | Ratio IC50 [14]: 14.8 | Ratio IC50 [15]: 11.3 | MIC [16]: 28.2 µM (≈ 12.7 µg/mL) | MIC [17]: 14.1 µM (≈ 6.35 µg/mL) | MIC [18]: 113 µM (≈ 50.9 µg/mL) | MIC (Escherichia coli): > 226 µM | MIC (Staphylococcus aureus): > 226 µM | MIC (Pseudomonas aeruginosa): > 226 µM | IC50 [19]: 6.2 µM | IC50 [20]: 43.9 µM | MIC [21]: 56.4 mg/L (≈ 125 µM) | MIC [22]: 56.4 mg/L (≈ 125 µM) | inhibition [23]: inactive
